According to ChEMBL document CHEMBL1201862, “PubChem BioAssay data set” (2004):
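Results reflect a 48-hour exposure of cells in 96-well plates to compound at five concentrations. Here, GI50 denotes the concentration required for 50% inhibition of growth.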 Activity calls are given as the source filed them. Rule as the data show it: active = GI50 up to about 1.1 µM and inactive = higher.

Legend:
Assay in all cases: DTP human tumour cell line panel, 48 h
[1] = test system: RXF 393
[2] = test system: SK-MEL-2
[3] = test system: SF-539
[4] = test system: DU-145
[5] = test system: A549
[6] = test system: HL-60
[7] = test system: UACC-257
[8] = test system: T47D
[9] = test system: BT-549
[10] = test system: NCI-H23
[11] = test system: HCT-15
[12] = test system: SK-OV-3
[13] = test system: SW-620
[14] = test system: Hs-578T
[15] = test system: U-251
[16] = test system: SNB-75
[17] = test system: UO-31
[18] = test system: OVCAR-3
[19] = test system: NCI-H522
[20] = test system: EKVX
[21] = test system: SF-268
[22] = test system: HCT-116
[23] = test system: ACHN
[24] = test system: MDA-MB-231
[25] = test system: MDA-MB-435
[26] = test system: K562
[27] = test system: CAKI-1
[28] = test system: SK-MEL-5
[29] = test system: CCRF-CEM
[30] = test system: SNB-19
[31] = test system: COLO 205
[32] = test system: OVCAR-4
[33] = test system: PC-3
[34] = test system: NCI-H460
[35] = test system: MDA-N
[36] = test system: A498
[37] = test system: LOX IMVI
[38] = test system: SF-295
[39] = test system: Malme-3M
[40] = test system: HOP-62
[41] = test system: NCI-H226
[42] = test system: HT-29
[43] = test system: SN12C
[44] = test system: NCI/ADR-RES
[45] = test system: SK-MEL-28
[46] = test system: KM12
[47] = test system: M14
[48] = test system: MOLT-4
[49] = test system: RPMI-8226
[50] = test system: OVCAR-5
[51] = test system: 786-0
[52] = test system: OVCAR-8
[53] = test system: SR
[54] = test system: IGROV-1
[55] = test system: HOP-92
[56] = test system: TK-10
[57] = test system: UACC-62
[58] = test system: MCF7

In the case of `c1cc2c(cc1C1=NCCN1)c1cc(C3=NCCN3)ccc1n2CC1CCCCC1`, the GI50 [1] was 39.5 µM (inactive), the GI50 [2] was 15.7 µM (inactive) and the GI50 [3] was 3.65 µM (inactive). For the same compound, the GI50 [4] was 18.1 µM (inactive), the GI50 [5] was 19.1 µM (inactive) and the GI50 [6] was 14.3 µM (inactive). The GI50 [7] was 22.7 µM (inactive), the GI50 [8] was 19.1 µM (inactive) and the GI50 [9] was 18.5 µM (inactive). For the same compound, the GI50 [10] was 17.1 µM (inactive), the GI50 [11] was > 100 µM and the GI50 [12] was 18.5 µM (inactive). The GI50 [13] was 20.4 µM (inactive), the GI50 [14] was 6.19 µM (inactive) and the GI50 [15] was 6.58 µM (inactive). For the same compound, the GI50 [16] was 11.6 µM (inactive), the GI50 [17] was 81.3 µM (inactive) and the GI50 [18] was 21.2 µM (inactive). The GI50 [19] was 4.94 µM (inactive), the GI50 [20] was 14.1 µM (inactive) and the GI50 [21] was 4.31 µM (inactive). For the same compound, the GI50 [22] was 12.9 µM (inactive), the GI50 [23] was > 100 µM (inactive) and the GI50 [24] was 16.6 µM (inactive). For the same compound, the GI50 [25] was 18 µM (inactive), the GI50 [26] was 14.8 µM (inactive) and the GI50 [27] was > 100 µM (inactive). The GI50 [28] was 11.9 µM (inactive), the GI50 [29] was 11.5 µM (inactive) and the GI50 [30] was 5.9 µM (inactive). The GI50 [31] was 1.74 µM (inactive), the GI50 [32] was 22.5 µM (inactive) and the GI50 [33] was 21.5 µM (inactive). The GI50 [34] was 14.7 µM (inactive), the GI50 [35] was 23.6 µM (inactive) and the GI50 [36] was > 100 µM (inactive). The GI50 [37] was 16.3 µM (inactive), the GI50 [38] was 32.1 µM (inactive) and the GI50 [39] was 8.11 µM (inactive). For the same compound, the GI50 [40] was 23.8 µM (inactive), the GI50 [41] was 12.3 µM (inactive) and the GI50 [42] was 11.5 µM (inactive). For the same compound, the GI50 [43] was 14 µM (inactive), the GI50 [44] was > 100 µM (inactive) and the GI50 [45] was 10.4 µM (inactive). The GI50 [46] was 8.73 µM (inactive), the GI50 [47] was 33.6 µM (inactive) and the GI50 [48] was 5.05 µM (inactive). For the same compound, the GI50 [49] was 22.7 µM (inactive), the GI50 [50] was 22.1 µM (inactive) and the GI50 [51] was 19.4 µM (inactive). For the same compound, the GI50 [52] was 25.4 µM (inactive), the GI50 [53] was 7.26 µM (inactive) and the GI50 [54] was 18.2 µM (inactive). The GI50 [55] was 8 µM (inactive) and the GI50 [56] was 51.3 µM (inactive).

With `NC(=O)c1cc2ccccc2c(/N=N/c2ccccc2)c1O` the GI50 [1] was > 100 µM (inactive), the GI50 [2] was > 100 µM (inactive) and the GI50 [4] was > 100 µM (inactive). The GI50 [5] was > 100 µM (inactive), the GI50 [7] was > 100 µM (inactive) and the GI50 [8] was > 100 µM (inactive). The GI50 [9] was > 100 µM (inactive), the GI50 [10] was > 100 µM (inactive) and the GI50 [11] was > 100 µM. The GI50 [12] was 76.6 µM (inactive), the GI50 [13] was > 100 µM (inactive) and the GI50 [14] was 93.3 µM (inactive). The GI50 [15] was 9.59 µM (inactive), the GI50 [16] was > 100 µM (inactive) and the GI50 [17] was > 100 µM (inactive). For the same compound, the GI50 [18] was 88.1 µM (inactive), the GI50 [19] was 38.7 µM (inactive) and the GI50 [20] was 39.4 µM (inactive). For the same compound, the GI50 [21] was 52.7 µM (inactive), the GI50 [22] was 14.1 µM (inactive) and the GI50 [24] was 35.6 µM (inactive). The GI50 [25] was > 100 µM (inactive), the GI50 [26] was 71.9 µM (inactive) and the GI50 [27] was 23.5 µM (inactive). For the same compound, the GI50 [28] was > 100 µM (inactive), the GI50 [29] was > 100 µM (inactive) and the GI50 [30] was > 100 µM (inactive). For the same compound, the GI50 [31] was > 100 µM (inactive), the GI50 [32] was 19.4 µM (inactive) and the GI50 [33] was > 100 µM (inactive). The GI50 [35] was > 100 µM (inactive), the GI50 [57] was > 100 µM (inactive) and the GI50 [36] was > 100 µM (inactive). The GI50 [37] was > 100 µM (inactive), the GI50 [38] was > 100 µM (inactive) and the GI50 [39] was > 100 µM (inactive). The GI50 [40] was 22.6 µM (inactive), the GI50 [41] was > 100 µM (inactive) and the GI50 [42] was 7.87 µM (inactive). For the same compound, the GI50 [43] was > 100 µM (inactive), the GI50 [44] was 76.2 µM (inactive) and the GI50 [45] was > 100 µM (inactive). The GI50 [46] was 28.6 µM (inactive), the GI50 [47] was > 100 µM (inactive) and the GI50 [48] was 76.7 µM (inactive). The GI50 [49] was 59.6 µM (inactive), the GI50 [50] was > 100 µM (inactive) and the GI50 [51] was 9.31 µM (inactive). For the same compound, the GI50 [52] was 29.9 µM (inactive), the GI50 [53] was > 100 µM (inactive) and the GI50 [54] was > 100 µM (inactive). The GI50 [55] was 12.5 µM (inactive) and the GI50 [56] was > 100 µM (inactive).

For `Clc1nc(Cl)c(-c2ccccc2)c(Cl)n1`, the GI50 [1] was 2.18 µM (inactive), the GI50 [3] was 5.42 µM (inactive) and the GI50 [4] was 13.5 µM (inactive). The GI50 [5] was 17.1 µM (inactive), the GI50 [6] was 2.15 µM (inactive) and the GI50 [7] was 2.82 µM (inactive). For the same compound, the GI50 [8] was 2.59 µM (inactive), the GI50 [9] was 2.61 µM (inactive) and the GI50 [10] was 4.51 µM (inactive). For the same compound, the GI50 [11] was 2.42 µM, the GI50 [12] was 11.2 µM (inactive) and the GI50 [13] was 2.26 µM (inactive). The GI50 [14] was 3.83 µM (inactive), the GI50 [15] was 5.32 µM (inactive) and the GI50 [16] was 0.64 µM (active). The GI50 [17] was 4.61 µM (inactive), the GI50 [18] was 3.57 µM (inactive) and the GI50 [19] was 1.55 µM (inactive). The GI50 [20] was 1.8 µM (inactive), the GI50 [21] was 3.19 µM (inactive) and the GI50 [22] was 1.84 µM (inactive). The GI50 [23] was 0.29 µM (active), the GI50 [24] was 3.24 µM (inactive) and the GI50 [25] was 3.24 µM (inactive). For the same compound, the GI50 [26] was 2.9 µM (inactive), the GI50 [27] was 1.87 µM (inactive) and the GI50 [28] was 3.18 µM (inactive). The GI50 [29] was 2.27 µM (inactive), the GI50 [30] was 14.5 µM (inactive) and the GI50 [58] was 3.04 µM (inactive). For the same compound, the GI50 [31] was 1.84 µM (inactive), the GI50 [32] was 2.51 µM (inactive) and the GI50 [34] was 13.4 µM (inactive). The GI50 [35] was 2.49 µM (inactive), the GI50 [57] was 3.09 µM (inactive) and the GI50 [36] was 16.2 µM (inactive). For the same compound, the GI50 [37] was 1.66 µM (inactive), the GI50 [38] was 12.7 µM (inactive) and the GI50 [39] was 2.02 µM (inactive). For the same compound, the GI50 [40] was 16.9 µM (inactive), the GI50 [41] was 2.3 µM (inactive) and the GI50 [42] was 7.66 µM (inactive). The GI50 [43] was 3.14 µM (inactive), the GI50 [44] was 3.42 µM (inactive) and the GI50 [45] was 5.96 µM (inactive). The GI50 [46] was 4.68 µM (inactive), the GI50 [47] was 1.62 µM (inactive) and the GI50 [48] was 2.96 µM (inactive). For the same compound, the GI50 [49] was 2.69 µM (inactive), the GI50 [50] was 4.61 µM (inactive) and the GI50 [51] was 2.5 µM (inactive). The GI50 [52] was 2.75 µM (inactive), the GI50 [53] was 2.48 µM (inactive) and the GI50 [54] was 4.92 µM (inactive). The GI50 [55] was 5.45 µM (inactive) and the GI50 [56] was 10.1 µM (inactive).
